Results on eight molecules are retold here after patent US20160287536A1, “Composition” (THE UNIVERSITY OF NOTTINGHAM, priority 2013, published 2016).

Holding throughout (assay type): cell-based
Assay [1] concerns sheep isolated rectal artery. Description: Wire myography, sheep isolated rectal artery (SRA). Particulars: for spontaneous contraction: sheep isolated rectal vessels, 10 μM. The procedure: (§1) Sheep mesenteric tissue, from the distal sigmoid colon to the anus, was obtained from a local abattoir. The sheep tissue was delivered in a dry bag and stored at 4° C. until dissected. The bundle of sheep rectal vessels was dissected from its mesentery within four hours of arrival from the abattoir. The vascular bundle was then kept in the pre-oxygenated Krebs-Henseleit buffer solution at 4° C. until used (on the same day as a preferential method or on the following day after storage overnight). No experiments were conducted on tissue stored for more than 24 hours after dissection. The Krebs solution consisted of 118.4 mM NaCl, 4.7 mM KCl, 1.2 mM MgSO4, 1.2 mM KH2PO4, 1.25 mM CaCl2, 24.9 mM NaHCO3, and 11.1 mM glucose.
(§2) Before setting a wire myography experiment, the remaining loose connective tissue was meticulously removed from the rectal vessels. The internal diameter of sheep isolated rectal artery and vein was 450-650 μm and 500-1000 μm, respectively. Each 5-mm ring segment of the ‘clean’ vessels was then suspended between two 200-μm wire supports in an organ bath containing 20 ml Krebs-Henseleit buffer solution. The upper supporting wire was attached to an isometric force transducer, while the lower wire was fixed steadily to a clamped glass rod. The bath solution was maintained at 37° C., and continuously gassed with 95% O2 and 5% CO2. Isometric tension was continuously recorded using a PowerLab 4/25 via QUAD Bridge amplifier (ADInstruments, Inc, Australia).
(§3) After a 10-minute equilibration period, an initial tension of 8 gram weight (g wt) was gradually applied for an arterial segment and left to relax for 30 minutes. The final tension of SRA varied between 1.0 g wt and 2.8 g wt. For a venous segment, an initial tension of 1 g wt was applied and, 10 minutes later, the resting tension was finally re-adjusted to reach a tension of 0.5 g wt. Then the vein was left to relax for further 20 minutes. The final tension of SRV ranged from 0.08 to 0.25 g wt. Once the vascular segments were fully settled, the tissues were tested for contractile activity with 60 mM KCl on three occasions. The vascular contraction was allowed to reach maximum, which generally took about 1-4 minutes. Each KCl challenge was followed by two washouts of 37° C. Krebs solution and the tissues were allowed to rest for 20 minutes between the challenges. The maximum contraction (tension) produced by the third administration of 60 mM KCl was used as a reference contraction to which subsequent responses were compared. After the final (3rd) KCl challenge, the tissues were washed and left for 60 minutes before α-adrenoceptor agonist was administrated. To construct an agonist concentration-response curves (CRC), 0.3-0.4 log 10 increments of agonist solution was added e.g. at the agonist concentration of 100 nM, 200 nM, 500 nM, 1 μM, 2 μM, 5 μM, and so on. Each response was allowed to reach equilibrium or plateau before the next dose of agonist was added. The maximal response to the agonist was considered when no further increase in response occurred upon the addition of two or more consecutive doses of agonist.
(§4) In the case of the noradrenaline study, 10 μM cocaine was added into the organ bath 40 minutes prior to the administration of noradrenaline for inhibiting the uptake of noradrenaline by neural tissue within the vascular wall (re-uptake 1) (Westfall & Westfall, 2006 In Goodman & Gilman's the Pharmacological Basis of Therapeutics. eds Brunton, L. L., Lazo, J. S. & Paker, K. L. pp. 137-181. New York: McGraw Hill). Regarding KCl-induced vasoconstriction, the CRC was generated by the contractile response to 6 mM increments of KCl solution, starting from 0 mM to 60 mM.
(§5) Consecutive CRCs were generated to each agonist, separated by 60 minutes, and if there was no difference in the maximum response (Emax) and pEC50 (defined as the negative logarithm of the concentration required to produce 50% of the maximum response) then a paired CRC protocol was used throughout. […]

The subject of assay [2] is sheep isolated rectal vein. Description: Wire myography, sheep isolated rectal vein (SRV). The procedure:
as §1, §2, §3, §4, §5

In assay [3] the test system is human isolated mesenteric vein. Briefly: Wire myography, human isolated mesenteric (colonic/rectal) vein (HMV). The following applies: for EC50: Homo sapiens. From the text:
After obtaining approval from the local research ethics committee (Reference number: 05/Q2403/171) and having written consent from the patient, human mesenteric (colonic or rectal) vessels were collected from patients who underwent colectomy and/or proctectomy at the Division of Gastrointestinal Surgery, Queen's Medical Centre, University of Nottingham, UK, between August 2009 and March 2010. Patients with a history of previous abdominal/pelvic radiotherapy, and patients with endocrine tumours or concomitant intraabdominal infection were excluded from this study. In an operating room, the mesentery containing the required segment of blood vessels was dissected from the whole surgical specimen immediately after it was removed from a patient. The tissue was then kept in a 100-ml pot containing pre-oxygenated Krebs-Henseleit buffer solution maintained at 4° C. until used. No experiments were conducted on tissue stored for more than 12 hours after dissection. The Krebs solution consisted of 118.4 mM NaCl, 4.7 mM KCl, 1.2 mM MgSO4, 1.2 mM KH2PO4, 1.25 mM CaCl2, 24.9 mM NaHCO3, and 11.1 mM glucose.
Before setting a wire myography experiment, human mesenteric (colonic/rectal) vessels were meticulously dissected from the surrounding mesenteric fatty tissue. The ‘clean’ vessel was then divided into 5-mm ring segments. Generally, the internal diameter of vessels ranged between 400-1000 μm for human mesenteric artery (HMA) and 500-1200 μm for human mesenteric vein (HMV). Each 5-mm ring segment was suspended between two 200-μm wire supports in an organ bath containing 20 ml Krebs-Henseleit buffer solution. The contractile study of human mesenteric vessels was then set in the similar manner of the previous study on sheep isolated rectal vessels.
After a 20-minute equilibration period, an initial resting tension of 8 and 1 gram weight (g wt) was gradually applied to arterial and venous ring segments, respectively, and left to relax for 30 minutes. The final resting tension varied between 1.8 g wt and 3.2 g wt for HMA, and between 0.07 g wt and 0.35 g wt for HMV. Once the vascular segments were fully settled, they were tested for contractile activity with 60 mM KCl three occasions, and an agonist concentration-response curves (CRC) was then reconstructed after the vessels were left to equilibrate for 60 minutes as previously described for sheep rectal vessels. […] In the case of noradrenaline study, 10 μM cocaine was added into the organ bath 40 minutes prior to the administration of noradrenaline for inhibiting the uptake of noradrenaline by neural tissue within the vascular wall (re-uptake 1) (Westfall & Westfall, 2006 In Goodman & Gilman's the Pharmacological Basis of Therapeutics. eds Brunton, L. L., Lazo, J. S. & Paker, K. L. pp. 137-181. New York: McGraw Hill).
Although it appeared that the CRCs of several vasoconstrictors were reproducible (no significant change in maximum response and agonist potency) in human mesenteric vessels, a single CRC, paired segment approach was adopted throughout the study of human blood vessels. This was due to a desire to limit the time of tissue storage and the ease of tissue preparation. The single CRC, paired segment approach involves the generation of only one agonist CRC per tissue. The maximum response (Emax) and pEC50 (defined as the negative logarithm of the concentration required to produce 50% of the maximum response) of each vascular segment were compared to those of other vascular segments (adjacent segments from the same patient, or other segments from different patients).
If the vessel had spontaneous and periodic contraction after the administration of S(−)-BayK8644—which occurred in 70% of HMA and 80% of HMV, the effect of agonist would be considered when there was an increase in the frequency of contraction as well as a rise in the baseline of vascular tone.
The selective α1-adrenoceptor antagonist prazosin and selective α2-adrenoceptor antagonist RX811059 were used in this study. […]

[4] abbreviates: Ovis aries, SRV, agonist alone (control).
Where [5] appears, read: with 10 nM prazosin and 30 nM RX811059.

“And” between values parts separate entries of the source, which are not always exact repeats. Equal values may be shown once. Read-outs that look alike come from different tables or passages of the source.

As usually defined, the pKB is the negative decadic logarithm of the KB, by convention in mol/L. As a reminder, the EC50 is the concentration needed to bring the measured effect to its halfway point. As usually defined, the pEC50 is the EC50 on a negative log10 scale, so that one unit is a factor of ten. The low end stands for a large EC50, the high end for a small EC50.

With `NCCc1c[nH]c2ccc(O)cc12` [5-HT, 5-hydroxytryptamine], the “contractile response” value in assay [1] (SRA) and in assay [2] (SRV) was “concentration-dependent contractions” in each case.

In the case of `[Cl-].[K+]` [KCl], the “contractile response” value is “sustained concentration-dependent contraction” in assay [1] (SRA) and “concentration-dependent contractions” in assay [2] (SRV). The “mean contraction to 60 mM KCl” value in assay [1] (SRA, n=119) was found to be 3.14±0.09 g wt; in assay [2] (SRV, n=128) it was 1.18±0.05 g wt.

Consider `COc1ccc(OC)c(C(O)C(C)N)c1` [L-erythro methoxamine], for which the “contractile response” value in assay [1] (SRA) and in assay [2] (SRV) was “concentration-dependent contractions” each time. The “maximum response as fraction of that to noradrenaline” value in assay [1] (SRA and SRV) is given as “one-third”. Moreover, the arterioselectivity in assay [1] (sheep rectal vessels, artery vs vein) came to 3 fold.

On to `CCOC1(C2=NCCN2)COc2ccccc2O1` (centres unmarked) [RX811059, 2-(2-ethoxy-1,4-benzodioxan-2-yl)-2-imidazoline], for which the “effect on the noradrenaline CRC” value in assay [1] (SRA, prazosin 0.4-10 nM, RX811059 30 nM) is given as “no change”. The Kb in assay [2] (Ovis aries, SRV, 10 nM prazosin / 30 nM RX811059 against noradrenaline) was 13.8 nM. In assay [2] (SRV, 10 nM prazosin / 30 nM RX811059 against noradrenaline), this molecule returned a pKB of roughly 7.9. In assay [2] (SRV, 30 nM RX811059 added to 10 nM prazosin), the “further rightward shift of the CRC for noradrenaline” value worked out at 1.6 fold. In addition, the “rightward shift of the CRC for noradrenaline” value in assay [2] (SRV, prazosin 10 nM, RX811059 30 nM) is 3 fold. Moreover, the “effect on potency of noradrenaline” value in assay [3] (10 nM prazosin, 30 nM RX811059) is given as “significantly reduced the potency of noradrenaline”. For the same molecule, the “parallel rightward shift of CRC to guanfacine” value in assay [3] (30 nM) is reported as 2 fold.

In the case of `COc1ccc(-c2cc(=O)c3c(O)cc(O[C@@H]4O[C@H](CO[C@@H]5O[C@@H](C)[C@H](O)[C@@H](O)[C@H]5O)[C@@H](O)[C@H](O)[C@H]4O)cc3o2)cc1O` [diosmin, 3′,5,7-trihydroxy-4′-methoxyflavone 7-rutinoside], the “spontaneous contraction” value in assay [1] is reported as “no spontaneous contraction”.

For `N=C(N)NC(=O)Cc1c(Cl)cccc1Cl` [guanfacine], the EC50 in assay [1] (Ovis aries, SRA, agonist alone) is 794 nM; in assay [2] (setting [4]), 398 nM; in assay [2] (Ovis aries, SRV, in the presence of 10 nM prazosin and 30 nM RX811059), 912 nM; in assay [2] (Ovis aries, SRV, in the presence of 1 μM S(−)-BayK8644), 229 nM; in assay [3] (control), 2240 nM; in assay [3] (with 10 nM prazosin), 2450 nM. For the same molecule, the EC50 in assay [3] (setting [5]) was 6460 nM; in assay [3] (with 30 nM RX811059), 5250 nM. Further, the Emax was roughly 20% in assay [1] (Ovis aries, SRA, read-out: maximum response relative to maximum response to noradrenaline); 45% in assay [2] (Ovis aries, SRV, read-out: maximum response relative to maximum response to noradrenaline); 54.7±8.1 percentage of the contraction and 37.0±6.6 percentage of the contraction in assay [2] (SRV, agonist alone (control)); 31.3±4.2 percentage of the contraction in assay [2] (SRV, in the presence of 10 nM prazosin and 30 nM RX811059); 72.8±9.0 percentage of the contraction in assay [2] (SRV, in the presence of 1 μM S(−)-BayK8644); 31.4±4.1 percentage of the contraction in assay [3] (control). Besides, the Emax in assay [3] (with 10 nM prazosin) is on record as 18.4±4.1 percentage of the contraction; in assay [3] (setting [5]), 20.3±8.5 percentage of the contraction; in assay [3] (with 30 nM RX811059) it was 33.0±4.1 percentage of the contraction. Further, the “contractile response” value in assay [1] (SRA) and in assay [2] (SRV) was “concentration-dependent contractions” each time. For the same molecule, in assay [2] (SRV, agonist alone (control)), the pEC50 was 6.58±0.07 and 6.48±0.11.

On to `O=c1c(O)c(-c2cc(O)c(O)c(O)c2)oc2cc(O)cc(O)c12` [myricetin, 3,3′,4′,5,5′,7-hesahydroxyflavone], for which, in assay [1], the “spontaneous contraction” value is “no spontaneous contraction”.

With `NC[C@H](O)c1ccc(O)c(O)c1` [noradrenaline], the “contractile response” value in assay [1] (SRA) and in assay [2] (SRV) was “concentration-dependent contractions” in each case. Also, the EC50 was 389 nM in assay [2] (setting [4]) and 1260 nM in assay [2] (Ovis aries, SRV, in the presence of 30 nM RX811059). Besides, the venoselectivity in assay [2] (sheep rectal vessels, vein vs artery) was 4 fold.
